Values after ≈ are worked out from the molar mass of the structure shown. Values joined by “and” are separate entries in the source; they are usually repeats but may differ in a detail not shown here. Identical values can stand only once. Values belong to the compound of their own block, whether it stands above or below them.
Key:
Assay in all cases: ≥ marks a high value that may be exact or a test limit, other limits are often not marked, values filed in µg/mL are converted to µM
Escherichia coli C600 = tested on: Escherichia coli C600
Escherichia coli 214 = tested on: Escherichia coli 214
[1] = tested on: Escherichia coli BL21(DE3)
Escherichia coli 1057 = tested on: Escherichia coli 1057
[2] = tested on: Enterococcus faecalis ATCC 29212
[3] = tested on: Staphylococcus aureus NCTC 12493
[4] = tested on: Staphylococcus cohnii MW767053
[5] = tested on: Trichophyton mentagrophytes
[6] = tested on: Staphylococcus haemolyticus
[7] = tested on: Staphylococcus pseudintermedius
[8] = tested on: Escherichia coli NCTC 10418
[9] = tested on: Pseudomonas aeruginosa ATCC 27853
[10] = tested on: Staphylococcus aureus ATCC 43300
[11] = tested on: Staphylococcus pseudintermedius MW767056
Staphylococcus simulans = tested on: Staphylococcus simulans
Staphylococcus sciuri = tested on: Staphylococcus sciuri
[12] = tested on: Staphylococcus aureus NCTC 10788
Proteus mirabilis = tested on: Proteus mirabilis
Staphylococcus aureus = tested on: Staphylococcus aureus
Microsporum canis = tested on: Microsporum canis
[13] = tested on: Microsporum canis MW768151
[14] = tested on: Salmonella enterica subsp. arizonae ATCC 13314
Micrococcus luteus A270 = tested on: Micrococcus luteus A270
[15] = tested on: Escherichia coli DH5alpha
[16] = tested on: Staphylococcus epidermidis ATCC 12228
Escherichia coli D31 = tested on: Escherichia coli D31
[17] = tested on: Staphylococcus aureus ATCC 29213
Escherichia coli = tested on: Escherichia coli
Pseudomonas tolaasii = tested on: Pseudomonas tolaasii
Ralstonia solanacearum = tested on: Ralstonia solanacearum
Bacillus thuringiensis = tested on: Bacillus thuringiensis
[18] = tested on: Staphylococcus epidermidis KCTC 1917
[19] = tested on: Enterococcus faecium ATCC 51559
[20] = tested on: Enterococcus faecium KCCM 12118
[21] = tested on: Enterococcus faecalis KCCM 29212
[22] = tested on: Escherichia coli KCTC 1682
[23] = tested on: Enterococcus faecalis ATCC 51575
[24] = tested on: Pseudomonas aeruginosa KCTC 1637
[25] = tested on: Staphylococcus aureus KCTC 1621
[26] = tested on: Staphylococcus aureus KCCM 40510
[27] = tested on: Salmonella typhimurium KCTC 1926
[28] = tested on: Bacillus subtilis KCTC 3068
[29] = tested on: Staphylococcus aureus E4049
[30] = tested on: Staphylococcus aureus ATCC 9144
[31] = tested on: Staphylococcus aureus 5118
Pseudomonas aeruginosa = tested on: Pseudomonas aeruginosa
Pseudomonas aeruginosa 1 = tested on: Pseudomonas aeruginosa 1
Escherichia coli 1 = tested on: Escherichia coli 1

Compound: CC[C@H](C)[C@H](NC(=O)[C@H](CCC(N)=O)NC(=O)[C@@H](NC(=O)CNC(=O)[C@@H](NC(=O)[C@H](CC(C)C)NC(=O)[C@H](CC(C)C)NC(=O)[C@H](Cc1ccccc1)NC(=O)[C@@H]1CCCN1C(=O)[C@@H](N)[C@@H](C)O)C(C)C)[C@@H](C)O)C(=O)N[C@@H](CC(=O)O)C(=O)N[C@@H](CC(C)C)C(=O)N[C@@H](CCCN=C(N)N)C(=O)O [TPFLLVGTQIDLR]
MIC [14]: 2.4 µM (≈ 3.53 µg/mL)
MIC (Micrococcus luteus A270): 4.7 µM (≈ 6.92 µg/mL)
MIC [15]: 2.4 µM (≈ 3.53 µg/mL)
MIC [16]: 1.2 µM (≈ 1.77 µg/mL)
MIC (Escherichia coli D31): 2.4 µM (≈ 3.53 µg/mL)
MIC [9]: 4.7 µM (≈ 6.92 µg/mL)
MIC [17]: 1.2 µM (≈ 1.77 µg/mL)

Compound: CC[C@H](C)[C@H](NC(=O)[C@H](CCCCN)NC(=O)CNC(=O)[C@H](CC(C)C)NC(=O)[C@@H](NC(=O)[C@H](CCCCN)NC(=O)[C@H](CCCCN)NC(=O)[C@H](CC(C)C)NC(=O)[C@H](CC(N)=O)NC(=O)[C@@H](N)CC(C)C)[C@@H](C)CC)C(=O)NCC(=O)N[C@H](C(=O)N[C@@H](CCSC)C(=O)N[C@@H](CC(C)C)C(=O)N[C@@H](CO)C(=O)N[C@@H](Cc1cnc[nH]1)C(=O)N[C@@H](CC(C)C)C(=O)N[C@@H](CC(N)=O)C(=O)O)C(C)C [LNLKKILGKIGVMLSHLN]
MIC (Escherichia coli): 0.402 µM (≈ 0.8 µg/mL)
MIC (Pseudomonas tolaasii): 1.36 µM (≈ 2.7 µg/mL)
MIC (Ralstonia solanacearum): 1.05 µM (≈ 2.1 µg/mL)
MIC (Bacillus thuringiensis): 1.46 µM (≈ 2.9 µg/mL)

Compound: CC[C@H](C)[C@H](NC(=O)[C@H](CCCN=C(N)N)NC(=O)[C@H](CC(C)C)NC(=O)[C@@H](N)CC(C)C)C(=O)N[C@@H](C)C(=O)N[C@@H](CC(C)C)C(=O)N[C@@H](CCCN=C(N)N)C(=O)N[C@@H](CCCCN)C(=O)N[C@@H](CCCCN)C(N)=O [LLRIALRKK]
MIC [18]: 3.6 µM (≈ 4 µg/mL)
MIC [19]: 7.2 µM (≈ 7.99 µg/mL)
MIC [20]: 28.8 µM (≈ 32 µg/mL)
MIC [21]: 28.8 µM (≈ 32 µg/mL)
MIC [22]: 3.6 µM (≈ 4 µg/mL)
MIC [23]: ≥ 57.6 µM
MIC [24]: 7.2 µM (≈ 7.99 µg/mL)
MIC [25]: 28.8 µM (≈ 32 µg/mL)
MIC [26]: 14.4 µM (≈ 16 µg/mL)
MIC [27]: 7.2 µM (≈ 7.99 µg/mL)
MIC [28]: 14.4 µM (≈ 16 µg/mL)

Compound: CC[C@H](C)[C@H](NC(=O)[C@H](CC(C)C)NC(=O)CNC(=O)[C@H](CCSC)NC(=O)[C@@H](NC(=O)[C@H](CC(C)C)NC(=O)[C@H](CCC(N)=O)NC(=O)CNC(=O)[C@H](Cc1ccccc1)NC(=O)[C@@H](NC(=O)[C@@H](N)CO)C(C)C)C(C)C)C(=O)N[C@@H](CC(C)C)C(=O)N[C@@H](CO)C(=O)N[C@@H](CO)C(=O)N[C@H](C(=O)N[C@@H](Cc1ccccc1)C(=O)N[C@@H](Cc1ccc(O)cc1)C(=O)N[C@@H](CC(N)=O)C(=O)N[C@@H](CC(=O)O)C(=O)N[C@@H](CC(=O)O)C(=O)O)C(C)C [SVFGQLVMGLILSSVFYNDD]
MIC [29]: ≥ 250 µM
MIC [30]: 15.9 µM (≈ 35 µg/mL)
MIC [31]: 1.81 µM (≈ 4 µg/mL)

The next lines start with results.

MIC (Escherichia coli C600): 2 µM and 4 µM
MIC (Escherichia coli 214): ≥ 64 µM
MIC [1]: 8 µM (≈ 23.2 µg/mL)
MIC (Escherichia coli 1057): 10 µM and 8 µM
MIC [2]: > 32 µM
Compound: CC(C)C[C@H](NC(=O)[C@H](CCCN=C(N)N)NC(=O)[C@@H](N)CCCN=C(N)N)C(=O)N[C@@H](CCCN=C(N)N)C(=O)N1CCC[C@H]1C(=O)N[C@@H](CCCN=C(N)N)C(=O)N[C@@H](CCCN=C(N)N)C(=O)N1CCC[C@H]1C(=O)N[C@@H](CCCN=C(N)N)C(=O)N[C@@H](CC(C)C)C(=O)N1CCC[C@H]1C(=O)N[C@@H](CCCN=C(N)N)C(=O)N1CCC[C@H]1C(=O)N[C@@H](CCCN=C(N)N)C(=O)N1CCC[C@H]1C(=O)N[C@@H](CCCN=C(N)N)C(=O)N1CCC[C@H]1C(=O)N[C@@H](CCCN=C(N)N)C(=O)N1CCC[C@H]1C(=O)N[C@@H](CCCN=C(N)N)C(=O)N1CCC[C@H]1C(=O)N[C@@H](CCCN=C(N)N)C(=O)O [RRLRPRRPRLPRPRPRPRPRPR]

MIC [3]: 4 µM (≈ 5.89 µg/mL)
MIC [4]: ≥ 86.9 µM
MIC [5]: 1.36 µM (≈ 2 µg/mL)
MIC [7]: ≥ 61.5 µM
MIC [8]: 7.99 µM (≈ 11.8 µg/mL)
MIC [9]: 2 µM (≈ 2.94 µg/mL)
MIC [10]: 0.998 µM (≈ 1.47 µg/mL)
MIC [11]: ≥ 174 µM
MIC (Staphylococcus simulans): 10.9 µM (≈ 16 µg/mL)
MIC (Staphylococcus sciuri): ≥ 174 µM
MIC [12]: 2 µM (≈ 2.94 µg/mL)
MIC (Proteus mirabilis): ≥ 43.5 µM
MIC (Staphylococcus aureus): 0.998 µM (≈ 1.47 µg/mL)
MIC (Microsporum canis): 1.92 µM (≈ 2.83 µg/mL)
MIC [13]: 0.679 µM (≈ 0.999 µg/mL)
Compound: CC[C@H](C)[C@H](NC(=O)CNC(=O)[C@H](CO)NC(=O)[C@H](CC(C)C)NC(=O)[C@H](CC(C)C)NC(=O)CN)C(=O)N[C@@H](CC(C)C)C(=O)NCC(=O)N[C@@H](C)C(=O)NCC(=O)N[C@@H](CCCCN)C(=O)N[C@@H](CCCCN)C(=O)N[C@H](C(=O)N[C@H](C(=O)N[C@@H](Cc1ccccc1)C(N)=O)C(C)C)[C@@H](C)CC [GLLSGILGAGKKIVF]
MIC [6]: ≥ 43.5 µM

MIC (Pseudomonas aeruginosa): 16 µM (≈ 40.1 µg/mL)
MIC (Escherichia coli): 1.3 µM (≈ 3.26 µg/mL)
MIC (Pseudomonas aeruginosa 1): 27 µM (≈ 67.7 µg/mL)
MIC (Escherichia coli 1): 2.7 µM (≈ 6.77 µg/mL)
Compound: CC[C@H](C)[C@H](NC(=O)[C@@H](NC(=O)[C@@H]1CCCN1C(=O)[C@H](CO)NC(=O)[C@@H]1CSSC[C@H](NC(=O)[C@H](CCCCN)NC(=O)[C@H](CCCCN)NC(=O)CNC(=O)CNC(=O)CNC(=O)CN)C(=O)N[C@@H](CCCCN)C(=O)N[C@@H](CCCCN)C(=O)N[C@@H](CC(C)C)C(=O)N[C@@H](Cc2ccccc2)C(=O)N[C@@H](CCCCN)C(=O)N[C@@H](CCCCN)C(=O)N1)C(C)C)C(=O)N1CCC[C@H]1C(=O)N[C@@H](CC(C)C)C(=O)N[C@@H](CC(C)C)C(=O)N[C@@H](Cc1cnc[nH]1)C(=O)N[C@@H](CC(C)C)C(=O)NCC(=O)O [GGGGKKCKKLFKKCSPVIPLLHLG]
